Test results from ChEMBL document CHEMBL3400021, “Systematic synthesis and anti-inflammatory activity of ω-carboxylated menaquinone derivatives--Investigations on identified and putative vitamin K₂ metabolites” (Bioorg Med Chem, 2015).

Tests used:
RAW264.7 [1] = assay: Antiinflammatory activity in mouse RAW264.7 cells assessed as inhibition of LPS-induced IL-1beta level at 10 uM incubated for 24 hrs prior to LPS challenge measured after 3 hrs by qRT-PCR analysis relative to control; type: functional
RAW264.7 [2] = assay: Cytotoxicity against mouse RAW264.7 cells; type: cell-based
RAW264.7 [3] = assay: Antiinflammatory activity in mouse RAW264.7 cells assessed as inhibition of LPS-induced TNF-alpha level at 10 uM incubated for 24 hrs prior to LPS challenge measured after 3 hrs by qRT-PCR analysis relative to control; type: functional
RAW264.7 [4] = assay: Antiinflammatory activity in mouse RAW264.7 cells assessed as inhibition of LPS-induced IL-6 level at 10 uM incubated for 24 hrs prior to LPS challenge measured after 3 hrs by qRT-PCR analysis relative to control; type: functional
RAW264.7 [5] = assay: Antiinflammatory activity in mouse RAW264.7 cells assessed as inhibition of LPS-induced TNF-alpha level at 5 uM incubated for 24 hrs prior to LPS challenge measured after 3 hrs by qRT-PCR analysis relative to control; type: functional
RAW264.7 [6] = assay: Antiinflammatory activity in mouse RAW264.7 cells assessed as inhibition of LPS-induced IL-6 level at 5 uM incubated for 24 hrs prior to LPS challenge measured after 3 hrs by qRT-PCR analysis relative to control; type: functional
RAW264.7 [7] = assay: Antiinflammatory activity in mouse RAW264.7 cells assessed as inhibition of LPS-induced IL-1beta level at 5 uM incubated for 24 hrs prior to LPS challenge measured after 3 hrs by qRT-PCR analysis relative to control; type: functional
RAW264.7 [8] = assay: Antiinflammatory activity in mouse RAW264.7 cells assessed as inhibition of LPS-induced IL-6 level at 1 uM incubated for 24 hrs prior to LPS challenge measured after 3 hrs by qRT-PCR analysis relative to control; type: functional
RAW264.7 [9] = assay: Antiinflammatory activity in mouse RAW264.7 cells assessed as inhibition of LPS-induced IL-1beta level at 1 uM incubated for 24 hrs prior to LPS challenge measured after 3 hrs by qRT-PCR analysis relative to control; type: functional
RAW264.7 [10] = assay: Antiinflammatory activity in mouse RAW264.7 cells assessed as inhibition of LPS-induced TNF-alpha level at 1 uM incubated for 24 hrs prior to LPS challenge measured after 3 hrs by qRT-PCR analysis relative to control; type: functional

| SMILES | inhibition at 10 µM (RAW264.7 [1]) [%] | Activity (RAW264.7 [2]) | inhibition at 10 µM (RAW264.7 [3]) [%] | inhibition at 10 µM (RAW264.7 [4]) [%] | inhibition at 5 µM (RAW264.7 [5]) [%] | inhibition at 5 µM (RAW264.7 [6]) [%] | inhibition at 5 µM (RAW264.7 [7]) [%] | inhibition at 1 µM (RAW264.7 [8]) [%] | inhibition at 1 µM (RAW264.7 [9]) [%] | inhibition at 1 µM (RAW264.7 [10]) [%] |
| --- | --- | --- | --- | --- | --- | --- | --- | --- | --- | --- |
| CC1=C(C/C=C(\C)C(=O)O)C(=O)c2ccccc2C1=O | 40.6 | Non-toxic | 20.8 | 34.4 | – | – | – | – | – | – |
| CC1=C(C/C=C(\C)CC/C=C(\C)CC/C=C(\C)C(=O)O)C(=O)c2ccccc2C1=O | 37 | Non-toxic | 24.4 | 46.3 | – | – | – | – | – | – |
| CC1=C(C/C=C(\C)CCC(=O)O)C(=O)c2ccccc2C1=O | – | Non-toxic | – | – | 25.2 | 29.8 | 28.3 | – | – | – |
| CC1=C(C/C=C(\C)CC/C=C(\C)CCC(=O)O)C(=O)c2ccccc2C1=O | – | Non-toxic | – | – | 26.3 | 52.1 | 51.5 | – | – | – |
| CC1=C(CCC(C)C(=O)O)C(=O)c2ccccc2C1=O (stereo not drawn) | – | Non-toxic | – | – | – | – | – | 20.6 | 23.1 | 17.3 |
| CC1=C(C/C=C(\C)CC/C=C(\C)CC/C=C(\C)CCC(=O)O)C(=O)c2ccccc2C1=O | 21.3 | Non-toxic | 2.2 | 10.6 | – | – | – | – | – | – |
| CC1=C(C/C=C(\C)CC/C=C(\C)C(=O)O)C(=O)c2ccccc2C1=O | – | Non-toxic | – | – | – | – | – | 47.7 | 43.5 | 7.7 |
